In US7902327B2, “Dendrimeric peptides, pharmaceutical compositions and methods of using the same” (New York University School of Medicine, priority 2007, dated 2011):
Converted amounts (≈) assume the structure as drawn. Like-named read-outs stand apart in the source and are kept apart here. Where a SMILES comes first, the peptide text is derived from it. Side-chain parts run from the residue outwards. [ ]: non-standard residue; d: D form. The star is where a group is joined. Lys(α,ε-(ArgTrp)2) = N=C(N)NCCC[C@H](N)C(=O)N[C@@H](Cc1c[nH]c2ccccc12)C(=O)NCCCC[C@H](NC(=O)[C@H](Cc1c[nH]c2ccccc12)NC(=O)[C@@H](N)CCCNC(=N)N)C(=O)*; βAla = NCCC(=O)O

Key:
[1] = system: Multidrug-resistant gram-positive S. aureus; conditions: over 250 generations
[2] = system: multi-drug resistant strain S. aureus
[3] = dye leakage assay (calcein); conditions: POPG vesicles
Source text: To confirm that the multivalent AMPs interact with and disrupt phospholipid bilayers, we measured the ability of dendrimer (RW)4D to induce leakage of calcein, entrapped within the interior of large unilamellar vesicles of model membrane POPG (1-Palmitoyl-2-Oleoyl-sn-Glycero-3-[Phospho-rac-(1-glycerol)]) with negatively charged head group. The leakage of vesicle contents to the AMPs was monitored by the release of calcein encapsulated in large unilamellar vesicles. The method of preparation of dye-encapsulated vesicles has been reported in detail (Torchilin and Weissig 2003). In short, large unilamellar POPG vesicles were prepared by reverse-phase evaporation. After evaporating the organic solvent, residue were hydrated with the calcein solution (100 mM) in buffer (10 mM Tris-HCl pH 7.4). The free calcein was removed by eluting through a Sephadex G-50 size-exclusion column in the same buffer. The leakage process was monitored by following the increase of calcein fluorescence intensity at 515 nm (excitation at 490 nm) after 20 μL of AMPs at different concentrations were added to 10 μL of vesicle solution mixed in 2 mL of TBS buffer. Complete leakage was achieved by addition of 100 uL of 20% Triton X-100 to the 2 ml solution, and the corresponding fluorescence intensity was used as 100% leakage for the calculation of leakage fraction.

[4] = assay type: cell-based, mouse
Description: The cells were grown in 96 well plates and a 100 μl aliquot of a three fold serial dilution of the peptides was dispensed into each well. Buffer alone was used as the positive control and H2O2 was used as the negative control. MTS […] was added to each well prior to incubation to visualize the cells. The cells were incubated for 24 hours and their absorbance were measured at λ=495 nm.

[5] = system: B. anthracis (32F2 Sterne)
[6] = system: gram-negative E. coli (D31); conditions: over 250 generations
E. coli RP437 biofilm = experiment: two-day biofilm on stainless steel coupons, Live/Dead staining; assay type: cell-based; conditions: 25 μg/mL, 48 hours
Description: E. coli biofilm inhibition by (RW)4D was also studied on stainless steel coupons. Microscope images were taken after staining the two-day biofilms with Live/Dead staining solution. […] Assay summary: E. coli RP437 was used to form biofilms in a plastic dish with stainless steel coupons and different concentrations of peptides. After 48 hours incubation, coupon was soaked in NaCl buffer containing staining component in the dark for 15 mins.

[7] = system: E. coli(D31) gram-negative bacteria; experiment: killing of multi-drug resistant bacteria, one hour contact; assay type: cell-based
[8] = system: multi-drug resistant MRSA gram-positive bacteria; experiment: as above; assay type: cell-based
trypsin = trypsin at high concentration, various time intervals up to 24 hrs
[9] = system: ampicillin- and streptomycin-resistant E. coli (D31)
[10] = system: gram-negative A. baumannii; experiment: LIVE/DEAD staining assay, membrane damage; assay type: cell-based; conditions: 1 hr incubation; (RW)4D 10 uM
[11] = system: three other gram-positive bacteria
E. coli (RP437) biofilm = experiment: biofilm formation in 96 well plates, crystal violet; assay type: cell-based; conditions: 24 hours
Source text: The effect of dendrimers of the invention on E. coli biofilm formation was further examined and measured. The development of a bacterial biofilm allows for the bacteria to become more antibiotic resistant. […] Assay summary: E. coli (RP437) was used to form biofilms in 96 well plates with and without different concentrations of peptides.

gram-positive MRSA = experiment: LIVE/DEAD staining assay, membrane damage; assay type: cell-based; conditions: 1 hr incubation; (RW)4D 10 uM
Acineto Baumannii = experiment: killing and growth inhibition of Acineto Baumannii; assay type: cell-based
[12] = antibacterial activity under physiological conditions (90% human serum); assay type: cell-based
Description: In a further experiment, antibacterial activity under physiological conditions was tested. The MIC50 was determined in the presence of 90% human serum, respectively.

E. coli RP437 biofilms [13] = experiment: CFU assay of biofilm inhibition; assay type: cell-based; conditions: 25 μg/mL, 24 hours
Description: Twenty-four hour biofilms of E. coli RP437 were grown on stainless steel coupons in LB medium containing up to 100 μg/mL of the three antimicrobial peptides—dendrimer, hexamer, and octamer. CFU counts were used to determine the extent of inhibition. The procedure of the study is as follows.
Overnight cultures of E. coli RP437 grown in LB medium were used to inoculate 5 mL of LB supplemented with up to 100 μg/mL of each peptide and polished, sterile 316L stainless steel coupons (1.2 cm×0.6 cm×0.1 cm). The cultures were incubated at 37° C. for 24 hours. The coupons were then removed from the bacterial culture using sterile forceps and washed three times in 0.85% NaCl buffer and placed in round-bottom tubes containing 3 mL of fresh NaCl buffer. These were then sonicated for 1.5 minutes in a water bath. The NaCl buffer containing bacterial cells was serially diluted and 60 μL of 1000 and 5000 fold dilutions were plated on LB agar plates. The plates were incubated at 37° C. overnight. The number of CFUs for each sample was counted after incubation. The experiment was conducted in duplicate.

E. coli RP437 biofilms [14] = experiment: biofilm assay on stainless steel coupons with LIVE/DEAD staining; assay type: cell-based; conditions: for Biofilm coefficients: Dead cells / Biofilm coefficients: Live cells / Biofilm coefficients: Total biofilms: 24 hours
Description: The stainless steel (S.S.) coupons were polished using a fine 3M SandBlaster sandpaper, then autoclaved for sterilization. […] For all the treatments, duplicate coupons were tested. To analyze the E. coli biofilms using fluorescence microscopy, the biofilms were stained with […] bacterial viability kit (Cat# L7012, Invitrogen Corporation, California). Each S.S. coupon was washed gently by dipping vertically in 0.85% NaCl buffer three times (change to fresh buffer after each dipping). Then, they were soaked in 1 mL of 0.85% NaCl buffer containing 3 μl of staining component A and B (1:4) in the dark for 15 mins. Images were taken by AXIO Imager.M1 (Carl Zeiss, German). Five images were taken for each sample. Data were obtained and are presented in Table 3, below, as well as in FIG. 5.

fresh sheep erythrocytes = experiment: hemolytic assay; assay type: cell-based; conditions: sheep erythrocytes, 37° C., 30 minutes
Description: Hemolytic activity of model peptides was assessed on fresh sheep erythrocytes (Fitzgerald Inc., Concord, Mass.). […] The resulting supernatant was diluted by a factor of 40 in distilled water. The absorbances of the supernatant at λ=540 nm (OD540) were measured in the UV Spectrophotometer. […] Hemolytic index (HI) was defined as HI═HD50/IC50.

[15] = mean over no, low and high salt

## N=C(N)NCCC[C@H](N)C(=O)N[C@@H](Cc1c[nH]c2ccccc12)C(=O)NCCCC[C@H](NC(=O)[C@H](Cc1c[nH]c2ccccc12)NC(=O)[C@@H](N)CCCNC(=N)N)C(=O)NCCCC[C@H](NC(=O)[C@H](CCCCNC(=O)[C@H](Cc1c[nH]c2ccccc12)NC(=O)[C@@H](N)CCCNC(=N)N)NC(=O)[C@H](Cc1c[nH]c2ccccc12)NC(=O)[C@@H](N)CCCNC(=N)N)C(=O)NCCC(N)=O [Den(RW)4D] (H-RWK([Trp-Arg])K(Lys(α,ε-(ArgTrp)2))[βAla]-NH2)
[1]
  development of resistance (MIC90): did not show resistance
[2]; 0 mM NaCl
  MIC50 S. aureus: 10 µg/mL (≈ 5.43 µM)
[2]; 75 mM NaCl
  MIC50 S. aureus: 15 µg/mL (≈ 8.14 µM)
[2]; 150 mM NaCl
  MIC50 S. aureus: 16 µg/mL (≈ 8.69 µM)
[2]; [15]
  mean MIC50 against S. aureus: 13.6 µg/mL
E. faecalis (29212); 29212
  MIC50 E. faecalis: 5.5 µg/mL (≈ 2.99 µM)
[3]
  concentration at which peptide caused 50% dye leakage: 0.5 µg/mL
[4]
  IC50: ~1380 µg/mL (≈ 750 µM)
[5]
  MIC50 B. anthracis: 13 µg/mL (≈ 7.06 µM)
[6]
  development of resistance (MIC90): did not show resistance
B. Subtilis (ATCC 6633); ATCC 6633
  MIC50 B. subtilis: 3.5 µg/mL (≈ 1.9 µM)
E. coli RP437 biofilm
  total biofilm formation on stainless steel coupons compared with blank control: significantly reduced
[7]
  decrease in bacteria remaining after contact: 3 log
[8]
  decrease in bacteria remaining after contact: 3 log
trypsin
  inactivation of antibacterial activity by trypsin: resistant to inactivation by trypsin
[9]
  increase in MIC50 value from no salt to high-salt condition: 50%
[9]; 0 mM NaCl
  MIC50 E. coli: 3.0 µg/mL (≈ 1.63 µM)
[9]; 75 mM NaCl
  MIC50 E. coli: 3.9 µg/mL (≈ 2.12 µM)
[9]; 150 mM NaCl
  MIC50 E. coli: 4.5 µg/mL (≈ 2.44 µM)
[9]; [15]
  mean MIC50 against E. coli: 3.8 µg/mL
[10]
  membrane damage / killing by Live/Dead staining: show damaged membranes
[11]; three gram-positive bacteria
  mean MIC50 against all test organisms: 7.4 µg/mL
E. coli (RP437) biofilm
  inhibition of biofilm formation: exhibited inhibition of E. coli biofilm formation
gram-positive MRSA
  membrane damage / killing by Live/Dead staining: show damaged membranes
Acineto Baumannii
  killing and growth inhibition: can kill the bacteria and inhibit its growth at very low concentration
[12]
  antimicrobial activity in the presence of human serum: human serum cannot completely block the antimicrobial activity

## N=C(N)NCCC[C@H](N)C(=O)N[C@@H](Cc1c[nH]c2ccccc12)C(=O)NCCCC[C@H](NC(=O)[C@H](Cc1c[nH]c2ccccc12)NC(=O)[C@@H](N)CCCNC(=N)N)C(=O)NCCCC[C@H](NC(=O)[C@H](CCCCNC(=O)[C@H](Cc1c[nH]c2ccccc12)NC(=O)[C@@H](N)CCCNC(=N)N)NC(=O)[C@H](Cc1c[nH]c2ccccc12)NC(=O)[C@@H](N)CCCNC(=N)N)C(=O)NCCC(N)=O [Dendrimer] (H-RWK([Trp-Arg])K(Lys(α,ε-(ArgTrp)2))[βAla]-NH2; N-terminus and C-terminus assumed)
E. coli RP437 biofilms [13]
  reduction of viable biofilm cell counts: ineffective
E. coli RP437 biofilms [14]; 25 μg/mL
  Total biofilm formation compared with blank control (ANOVA): significantly reduced
  Biofilm coefficients: Dead cells: 7.11% ± 1.93%
  Biofilm coefficients: Live cells: 4.42% ± 2.30%
  Biofilm coefficients: Total biofilms: 11.16% ± 3.09%
E. coli RP437 biofilms [14]; 50 μg/mL
  Total biofilm formation compared with blank control (ANOVA): significantly reduced
  Biofilm coefficients: Dead cells: 5.05% ± 1.47%
  Biofilm coefficients: Live cells: 2.32% ± 1.12%
  Biofilm coefficients: Total biofilms: 7.06% ± 1.91%

## CC[C@H](C)[C@H](N)C(=O)N[C@@H](CC(C)C)C(=O)N1CCC[C@H]1C(=O)N[C@@H](Cc1c[nH]c2ccccc12)C(=O)N[C@@H](CCCCN)C(=O)N[C@@H](Cc1c[nH]c2ccccc12)C(=O)N1CCC[C@H]1C(=O)N[C@@H](Cc1c[nH]c2ccccc12)C(=O)N[C@@H](Cc1c[nH]c2ccccc12)C(=O)N1CCC[C@H]1C(=O)N[C@@H](Cc1c[nH]c2ccccc12)C(=O)N[C@@H](CCCNC(=N)N)C(=O)N[C@@H](CCCNC(=N)N)C(N)=O [Indolicidin, reference compound]
E. faecalis (29212); 29212
  MIC50 E. faecalis: 1.6 µg/mL (≈ 0.839 µM)
[5]; 32F2 Sterne
  MIC50 B. anthracis: 8.2 µg/mL (≈ 4.3 µM)
Fresh sheep erythrocytes
  HD50 (peptide concentration corresponding to 50% hemolysis): 293 µg/mL
B. Subtilis (ATCC 6633); ATCC 6633
  MIC50 B. subtilis: 1.0 µg/mL (≈ 0.525 µM)
[9]; E. coli and S. aureus, 0 to 150 mM NaCl
  increase in MIC50 value from no salt to high-salt condition: > 100%
[11]
  mean MIC50 against all test organisms: 3.6 µg/mL

## CN[C@H](CC(C)C)C(=O)N[C@H]1C(=O)N[C@@H](CC(N)=O)C(=O)N[C@H]2C(=O)N[C@H]3C(=O)N[C@H](C(=O)N[C@H](C(=O)O)c4cc(O)cc(O)c4-c4cc3ccc4O)[C@H](O)c3ccc(c(Cl)c3)Oc3cc2cc(c3O[C@@H]2O[C@H](CO)[C@@H](O)[C@H](O)[C@H]2O[C@H]2C[C@](C)(N)[C@H](O)[C@H](C)O2)Oc2ccc(cc2Cl)[C@H]1O [vancomycin, reference compound]
[10]
  membrane damage / killing by Live/Dead staining: did not actively kill
gram-positive MRSA
  membrane damage / killing by Live/Dead staining: did not actively kill

## Gentamicin [reference compound]
[2]; 0 mM NaCl
  MIC50 S. aureus: 51 µg/mL
[2]; 75 mM NaCl
  MIC50 S. aureus: 51 µg/mL
[2]; 150 mM NaCl
  MIC50 S. aureus: 51 µg/mL
E. faecalis (29212)
  MIC50 E. faecalis: 0.36 µg/mL
[5]
  MIC50 B. anthracis: 3.1 µg/mL
Fresh sheep erythrocytes
  HD50 (peptide concentration corresponding to 50% hemolysis): >2000 µg/mL
B. Subtilis (ATCC 6633)
  MIC50 B. subtilis: 0.32 µg/mL
[9]; 0 mM NaCl
  MIC50 E. coli: 1.2 µg/mL
[9]; 75 mM NaCl
  MIC50 E. coli: 1.2 µg/mL
[9]; 150 mM NaCl
  MIC50 E. coli: 1.2 µg/mL
